Laboratory results as given in patent US9243037B2, “Gramicidin a mutants that function as antibiotics with improved solubility and reduced toxicity” (Trustees of Boston College, priority 2011, dated 2016).
Where two headings read alike, the source gives them in different places. Where a SMILES comes first, the peptide text is derived from it. [ ]: non-standard residue; d: D form. The star is where a group is joined. dLys(Me3) = C[N+](C)(C)CCCC[C@@H](N)C(=O)O; NHCH2CH2OH = OCCN*; For = O=C*

Tests used:
[1] = test system: human red blood cells (hRBCs); assay: Haemoglobin release from human red blood cells; type: cell-based
Description: Fresh human red blood cells (hRBCs) were centrifuged at 3500 rpm and washed with PBS buffer until the supernatant was clear. The hRBCs were then resuspended and diluted to a final concentration of 1% (v/v) in PBS and used immediately. 15 μL of serial dilution (2-fold) of peptides in DMSO or DMSO alone as a negative control were added to 1.5 mL of hRBCs in PBS. The resulting mixture was gently shaken to mix well and incubated at 37° C. for 1 hr, followed by centrifugation at 3500 rpm for 10 min using tabletop centrifuge. Aliquots (50 μL) of the supernatant (in triplicates) were transferred into a sterile 96-well plate containing 50 μL of H2O in each well. Release of hemoglobin was monitored at 415 nm using a microtiter plate reader. Percentage hemolysis was calculated using percentage hemolysis=100·(A415, peptide-A415,DMSO)/(A415, complete hemolysis-A415, DMSO), where complete hemolysis is achieved by mixing hRBCs with 1% TritonX-100.

[2] = test system: human red blood cells (hRBCs); assay: K+ leakage from hRBCs (flame atomic emission); type: cell-based
Description: The rest of supernatant (1.2 mL) from each sample prepared as described in the hemoglobin leakage assay was transferred into a new sterile eppendorf tube and subject to the K+ concentration measurement using a flame-atomic emission spectrometer (λem=766.5 nm, Perkin Elmer Atomic absorption Spectrometer 3100, acetylene/air flame). Three readings were taken for each sample and averaged as final results. The fraction of K+ leakage from hRBCs was calculated as percentage K+ leaked=100·(I776.5,peptide−I776.5,DMSO)/(I776.5,complete lysis−I776.5,DMSO).

[3] = physchem; type: physicochemical; conditions: for solubility kinetic at 30 min: pH 7, aqueous with cosolvent or surfactant or cyclodextrin
Description: Peptide solubility in 10 mM HEPES buffer with 1% DMSO was measured by monitoring tryptophan absorbance. A concentrated (6.0-8.0 mM) peptide stock solution in DMSO was diluted 100 times (5 μL of the stock into 500 jtl of 10 mM HEPES buffer, pH 7.0). The mixture was sonicated for 30 mins and then subject to centrifugation (14,000 rpm, 10 mins) to remove possible precipitate. The supernatant (400 μL) was transferred to a quartz cuvette and the peptide concentration was determined by tryptophan absorbance at 280 nm (ε=22760 M−1 cm-1). The UV/Vis spectra of the supernatant can be seen in FIG. 1 and FIG. 5.

[4] = Peptide binding onto membranes (Trp fluorescence); conditions: neutral POPC vesicles; in words
[5] = Peptide binding onto membranes (Trp fluorescence); conditions: negatively charged POPC/POPG vesicles; in words
[6] = test system: Bacillus subtilis (ATCC 663)
[7] = test system: Staphylococcus aureus (ATCC 6538)
[8] = test system: Streptococcus pyogenes (ATCC 19615)
[9] = Trp absorbance @ 280 nm; 10 mM PBS, pH 7.0, 1% DMSO; values taken from ref; cited from earlier work

## CC(C)C[C@@H](NC(=O)[C@H](C)NC(=O)CNC(=O)[C@@H](NC=O)C(C)C)C(=O)N[C@@H](C)C(=O)N[C@@H](C(=O)N[C@H](C(=O)N[C@@H](C(=O)N[C@@H](Cc1c[nH]c2ccccc12)C(=O)N[C@H](CC(C)C)C(=O)N[C@@H](Cc1c[nH]c2ccccc12)C(=O)N[C@H](CC(C)C)C(=O)N[C@@H](Cc1c[nH]c2ccccc12)C(=O)N[C@H](CCCCN)C(=O)N[C@@H](Cc1c[nH]c2ccccc12)C(=O)NCCO)C(C)C)C(C)C)C(C)C (racemic) [gA-2, formyl-V-G-A-dL-A-dV-V-dV-W-dL-W-dL-W-dK-W-NHCH2CH2OH]
[1]; red cells of human
  HC50 (50% haemoglobin leakage relative to 1% TritonX-100): 5~10 μM
[2]
  KC50 (50% K+ ion leakage relative to 1% TritonX-100): 0.01 µM
  peptide concentration for 50% K+ ion leakage, fold greater than wild-type Gramicidin A: ~100 fold
[3]
  water solubility, fold higher than wild-type Gramicidin A: ~200 fold
[4]
  apparent dissociation constant (Kd) / binding: apparent Kd values close to that of gA-WT
[5]
  apparent dissociation constant (Kd) / binding: apparent Kd values close to that of gA-WT
[6]; ATCC 663
  MICs B. Subtilius: 5 µM
[6]; B. subtilis
  MIC relative to wild-type Gramicidin A: equivalent to that of wild-type Gramicidin A
[7]; ATCC 6538
  MICs S. Aureus: 2.5 µM
[7]; S. Aureus
  MIC relative to wild-type Gramicidin A: equivalent to that of wild-type Gramicidin A
[8]; ATCC 19615
  MICs S. Pyogenes: 0.16 µM
[8]; S. Pyogenes
  MIC relative to wild-type Gramicidin A: equivalent to that of wild-type Gramicidin A
[9]
  Sat. Conc, Lys series: 11 µM

## CC(C)C[C@@H](NC(=O)[C@H](C)NC(=O)CNC(=O)[C@@H](NC=O)C(C)C)C(=O)N[C@@H](C)C(=O)N[C@@H](C(=O)N[C@H](C(=O)N[C@@H](C(=O)N[C@@H](Cc1c[nH]c2ccccc12)C(=O)N[C@H](CC(C)C)C(=O)N[C@@H](Cc1c[nH]c2ccccc12)C(=O)N[C@H](CCCC[N+](C)(C)C)C(=O)N[C@@H](Cc1c[nH]c2ccccc12)C(=O)N[C@H](CC(C)C)C(=O)N[C@@H](Cc1c[nH]c2ccccc12)C(=O)NCCO)C(C)C)C(C)C)C(C)C [12MeK] (For-VGA[dL]A[dV]V[dV]W[dL]W[dLys(Me3)]W[dL]W-NHCH2CH2OH)
[1]; Table 8
  HC50: >10
[2]; Table 8
  KC50: 0.2

## CC(C)C[C@@H](NC(=O)[C@H](C)NC(=O)CNC(=O)[C@@H](NC=O)C(C)C)C(=O)N[C@@H](C)C(=O)N[C@@H](C(=O)N[C@H](C(=O)N[C@@H](C(=O)N[C@@H](Cc1c[nH]c2ccccc12)C(=O)N[C@H](CCCC[N+](C)(C)C)C(=O)N[C@@H](Cc1c[nH]c2ccccc12)C(=O)N[C@H](CC(C)C)C(=O)N[C@@H](Cc1c[nH]c2ccccc12)C(=O)N[C@H](CCCC[N+](C)(C)C)C(=O)N[C@@H](Cc1c[nH]c2ccccc12)C(=O)NCCO)C(C)C)C(C)C)C(C)C [10, 14M] (For-VGA[dL]A[dV]V[dV]W[dLys(Me3)]W[dL]W[dLys(Me3)]W-NHCH2CH2OH)
[1]
  HC50: >24
  haemoglobin leakage from hRBCs: [c] HC50 is the peptide concentration required to cause 50% of haemoglobin leakage from human red blood cells compared to the lysis of same amount cells by 1% TritonX-100. No haemoglogin leakage was observed in the cases of 10, 14M, 10, 12M or 10, 12, 14M at the concentration range tested.
[1]; red cells of human
  Toxicity HC50: >24 µM
[2]
  KC50: 20
  Toxicity KC50: 20 µM
[3]
  solubility kinetic at 30 min: 30 µM
[6]; ATCC 663
  Minimum Inhibition Concentration B. Subtilius: 2.5 µM
[7]; ATCC 6538
  HC50 printed in the S. Aureus MIC cell: 1.25 µM
  Minimum Inhibition Concentration S. Aureus: > 10 µM
[8]; ATCC 19615
  Minimum Inhibition Concentration S. Pyogenesis: 1.25 µM

## CC(C)C[C@@H](NC(=O)[C@H](C)NC(=O)CNC(=O)[C@@H](NC=O)C(C)C)C(=O)N[C@@H](C)C(=O)N[C@@H](C(=O)N[C@H](C(=O)N[C@@H](C(=O)N[C@@H](Cc1c[nH]c2ccccc12)C(=O)N[C@H](CC(C)C)C(=O)N[C@@H](Cc1c[nH]c2ccccc12)C(=O)N[C@H](CCCC[N+](C)(C)C)C(=O)N[C@@H](Cc1c[nH]c2ccccc12)C(=O)N[C@H](CCCC[N+](C)(C)C)C(=O)N[C@@H](Cc1c[nH]c2ccccc12)C(=O)NCCO)C(C)C)C(C)C)C(C)C [1214MeK] (For-VGA[dL]A[dV]V[dV]W[dL]W[dLys(Me3)]W[dLys(Me3)]W-NHCH2CH2OH)
[2]; Table 8
  KC50: >10

## CC(C)C[C@@H](NC(=O)[C@H](C)NC(=O)CNC(=O)[C@@H](NC=O)C(C)C)C(=O)N[C@@H](C)C(=O)N[C@@H](C(=O)N[C@H](C(=O)N[C@@H](C(=O)N[C@@H](Cc1c[nH]c2ccccc12)C(=O)N[C@H](CC(C)C)C(=O)N[C@@H](Cc1c[nH]c2ccccc12)C(=O)N[C@H](CC(C)C)C(=O)N[C@@H](Cc1c[nH]c2ccccc12)C(=O)N[C@H](CCCC[N+](C)(C)C)C(=O)N[C@@H](Cc1c[nH]c2ccccc12)C(=O)NCCO)C(C)C)C(C)C)C(C)C [14M] (For-VGA[dL]A[dV]V[dV]W[dL]W[dL]W[dLys(Me3)]W-NHCH2CH2OH)
[1]
  HC50: 24
[1]; red cells of human
  Toxicity HC50: 24 µM
[2]
  KC50: 0.015
  Toxicity KC50: 0.015 µM
[3]
  solubility kinetic at 30 min: 3.6 µM
[6]; ATCC 663
  Minimum Inhibition Concentration B. Subtilius: 2.5 µM
[7]; ATCC 6538
  Minimum Inhibition Concentration S. Aureus: 1.25 to 2.5 µM
[8]; ATCC 19615
  Minimum Inhibition Concentration S. Pyogenesis: 0.078 µM

## CC(C)C[C@@H](NC(=O)[C@H](C)NC(=O)CNC(=O)[C@@H](NC=O)C(C)C)C(=O)N[C@@H](C)C(=O)N[C@@H](C(=O)N[C@H](C(=O)N[C@@H](C(=O)N[C@@H](Cc1c[nH]c2ccccc12)C(=O)N[C@H](CCCC[N+](C)(C)C)C(=O)N[C@@H](Cc1c[nH]c2ccccc12)C(=O)N[C@H](CCCC[N+](C)(C)C)C(=O)N[C@@H](Cc1c[nH]c2ccccc12)C(=O)N[C@H](CCCC[N+](C)(C)C)C(=O)N[C@@H](Cc1c[nH]c2ccccc12)C(=O)NCCO)C(C)C)C(C)C)C(C)C [10, 12, 14M] (For-VGA[dL]A[dV]V[dV]W[dLys(Me3)]W[dLys(Me3)]W[dLys(Me3)]W-NHCH2CH2OH)
[1]
  HC50: >95
  haemoglobin leakage from hRBCs: [c] HC50 is the peptide concentration required to cause 50% of haemoglobin leakage from human red blood cells compared to the lysis of same amount cells by 1% TritonX-100. No haemoglogin leakage was observed in the cases of 10, 14M, 10, 12M or 10, 12, 14M at the concentration range tested.
[1]; red cells of human
  Toxicity HC50: >95 µM
[2]
  KC50: >95
  Toxicity KC50: >95 µM
[3]
  solubility kinetic at 30 min: 55 µM

## CC(C)C[C@@H](NC(=O)[C@H](C)NC(=O)CNC(=O)[C@@H](NC=O)C(C)C)C(=O)N[C@@H](C)C(=O)N[C@@H](C(=O)N[C@H](C(=O)N[C@@H](C(=O)N[C@@H](Cc1c[nH]c2ccccc12)C(=O)N[C@H](CCCC[N+](C)(C)C)C(=O)N[C@@H](Cc1c[nH]c2ccccc12)C(=O)N[C@H](CCCC[N+](C)(C)C)C(=O)N[C@@H](Cc1c[nH]c2ccccc12)C(=O)N[C@H](CC(C)C)C(=O)N[C@@H](Cc1c[nH]c2ccccc12)C(=O)NCCO)C(C)C)C(C)C)C(C)C [10, 12M] (For-VGA[dL]A[dV]V[dV]W[dLys(Me3)]W[dLys(Me3)]W[dL]W-NHCH2CH2OH)
[1]
  HC50: >10
  haemoglobin leakage from hRBCs: [c] HC50 is the peptide concentration required to cause 50% of haemoglobin leakage from human red blood cells compared to the lysis of same amount cells by 1% TritonX-100. No haemoglogin leakage was observed in the cases of 10, 14M, 10, 12M or 10, 12, 14M at the concentration range tested.
[1]; red cells of human
  Toxicity HC50: >10 µM
[2]
  KC50: >10
  Toxicity KC50: >10 µM
[3]
  solubility kinetic at 30 min: 27 µM
[8]; ATCC 19615
  EC50: 1.25 µM
  Minimum Inhibition Concentration S. Pyogenesis: > 10 µM

## CC(C)C[C@@H](NC(=O)[C@H](C)NC(=O)CNC(=O)[C@@H](NC=O)C(C)C)C(=O)N[C@@H](C)C(=O)N[C@@H](C(=O)N[C@H](C(=O)N[C@@H](C(=O)N[C@@H](Cc1c[nH]c2ccccc12)C(=O)N[C@H](CCCC[N+](C)(C)C)C(=O)N[C@@H](Cc1c[nH]c2ccccc12)C(=O)N[C@H](CC(C)C)C(=O)N[C@@H](Cc1c[nH]c2ccccc12)C(=O)N[C@H](CC(C)C)C(=O)N[C@@H](Cc1c[nH]c2ccccc12)C(=O)NCCO)C(C)C)C(C)C)C(C)C [10M] (For-VGA[dL]A[dV]V[dV]W[dLys(Me3)]W[dL]W[dL]W-NHCH2CH2OH)
[1]
  HC50: 19
[1]; red cells of human
  Toxicity HC50: 19 µM
[2]
  KC50: 0.04
  Toxicity KC50: 0.04 µM
[3]
  solubility kinetic at 30 min: 4.3 µM
[6]; ATCC 663
  Minimum Inhibition Concentration B. Subtilius: 2.5 µM
[7]; ATCC 6538
  Minimum Inhibition Concentration S. Aureus: 2.5 µM
[8]; ATCC 19615
  Minimum Inhibition Concentration S. Pyogenesis: 0.15 µM
